Source: publication PMC12643509, “High-throughput screens identify genotype-specific therapeutics for channelopathies” (JCI Insight, 2025)
Values joined by “and” are separate entries in the source; they are usually repeats but may differ in a detail not shown here. Identical values can stand only once.

What was measured:
WT Kv11.1 = WT Kv11.1 (Homo sapiens, UniProt Q12809); settings: 24 hour and washout, individual wells
Excerpt: plot of hits tested for 24-h our WT toxicity. Each point repres ents the med ia n robust Z score
after 24-hour treatm ent and washout in cells ex pressing WT.
robust Z scores be low bas eli ne function).
second ary screens w ere perform ed i n triplicate us ing 1 0 µ M drug treatme nt to assess: 1)
acute channel block, measur ed after a 15-minute inc ubati on with the drug present duri ng
recordi ngs; and 2) t oxicit y in W T channels, assesse d af t er a 24-hour drug ex posure fol low ed
(C) Tl+-measurements after 24-hour treatment and washout in HEK cells

wild-type KV11.1 = wild-type KV11.1 (Homo sapiens, UniProt Q12809); assay: cell-based
[1] = system: Kv11.1 missense variants, residues 536–628; assay: Multiplexed assay of variant effect (saturation mutagenesis, FACS surface trafficking)
Description: Cells were grown to 40%–60% confluence and transiently transfected first with Bxb1 integrase (pCAG–NLS–HA–Bxb1) using FuGENE 6 (Promega), followed by KCNH2 variant libraries 24 hours later. On day 6, cells were induced with 1 μg/mL doxycycline. Integrated cell lines expressed a single variant alongside mCherry, while nonintegrated cells were tagBFP-positive and mCherry-negative.
Saturation mutagenesis of Kv11.1 was performed using a modified promoterless dsRed-Express derivative plasmid. WT KCNH2 was inserted adjacent to an AttB site, and NdeI/BglII sites were created via synonymous mutations. […] These were purified, ligated, and electroporated into MegaX DH10B Electrocomp Cells.
The mutant pool was subcloned into the AttB-KCNH2-HA:IRES:mCherry plasmid, with an 18-mer poly-N barcode inserted adjacent to the AttB site. Each cloning step was validated via Sanger sequencing. To link barcodes with mutants, the library was digested, ligated, and PCR amplified. Final products were purified and sequenced on an Illumina NovaSeq. Reads were analyzed with a custom Python script to identify barcodes linked to single mutations.
HEK293T cells were cultured in αMEM (Corning) with 10% FBS and 1% GlutaMax at 37°C with 5% CO2. The KCNH2 variant library was integrated into a HEK293T “landing pad” cell line containing an AttP site between a tetracycline-inducible promoter and a blue fluorescent protein gene.
Cells were transfected using FuGENE 6, first with a plasmid expressing Bxb1 integrase (pCAG–NLS–HA–Bxb1) and then, the following day, with the KCNH2 variant library. On day 6, cells were incubated with 1 μg/mL doxycycline to induce expression from the landing pad’s promoter. Resulting stable cell lines expressed one variant and mCherry, while nonintegrated cells expressed tagBFP and were mCherry-negative.
Stable HEK293T cell lines were cultured in T75 flasks until 80%–90% confluent. […] After treatments, high-throughput quantitation was performed at the Vanderbilt University Medical Center Flow Cytometry Shared Resource Core (FCSR).
The treated HEK293T library was sorted via FACS to isolate cells with high mCherry expression and successful AttB plasmid integration. […] Sorted cells were repopulated and prepared for freezing, pelleted at 1 million cells per tube.
DNA was isolated from cell pools (100 μL QuickExtract per 1 million cells) and the barcode was PCR amplified for Illumina sequencing using Q5 polymerase (25–35 cycles). Sequencing reads were demultiplexed and analyzed using custom Python scripts (https://github.com/kroncke-lab/KCNH2_DMS) to identify barcodes.
The scores were then averaged across the 4 replicate experiments (separate transfections of the mutant library pool).

WT Kv11.1, sequence (Q12809 whole entry): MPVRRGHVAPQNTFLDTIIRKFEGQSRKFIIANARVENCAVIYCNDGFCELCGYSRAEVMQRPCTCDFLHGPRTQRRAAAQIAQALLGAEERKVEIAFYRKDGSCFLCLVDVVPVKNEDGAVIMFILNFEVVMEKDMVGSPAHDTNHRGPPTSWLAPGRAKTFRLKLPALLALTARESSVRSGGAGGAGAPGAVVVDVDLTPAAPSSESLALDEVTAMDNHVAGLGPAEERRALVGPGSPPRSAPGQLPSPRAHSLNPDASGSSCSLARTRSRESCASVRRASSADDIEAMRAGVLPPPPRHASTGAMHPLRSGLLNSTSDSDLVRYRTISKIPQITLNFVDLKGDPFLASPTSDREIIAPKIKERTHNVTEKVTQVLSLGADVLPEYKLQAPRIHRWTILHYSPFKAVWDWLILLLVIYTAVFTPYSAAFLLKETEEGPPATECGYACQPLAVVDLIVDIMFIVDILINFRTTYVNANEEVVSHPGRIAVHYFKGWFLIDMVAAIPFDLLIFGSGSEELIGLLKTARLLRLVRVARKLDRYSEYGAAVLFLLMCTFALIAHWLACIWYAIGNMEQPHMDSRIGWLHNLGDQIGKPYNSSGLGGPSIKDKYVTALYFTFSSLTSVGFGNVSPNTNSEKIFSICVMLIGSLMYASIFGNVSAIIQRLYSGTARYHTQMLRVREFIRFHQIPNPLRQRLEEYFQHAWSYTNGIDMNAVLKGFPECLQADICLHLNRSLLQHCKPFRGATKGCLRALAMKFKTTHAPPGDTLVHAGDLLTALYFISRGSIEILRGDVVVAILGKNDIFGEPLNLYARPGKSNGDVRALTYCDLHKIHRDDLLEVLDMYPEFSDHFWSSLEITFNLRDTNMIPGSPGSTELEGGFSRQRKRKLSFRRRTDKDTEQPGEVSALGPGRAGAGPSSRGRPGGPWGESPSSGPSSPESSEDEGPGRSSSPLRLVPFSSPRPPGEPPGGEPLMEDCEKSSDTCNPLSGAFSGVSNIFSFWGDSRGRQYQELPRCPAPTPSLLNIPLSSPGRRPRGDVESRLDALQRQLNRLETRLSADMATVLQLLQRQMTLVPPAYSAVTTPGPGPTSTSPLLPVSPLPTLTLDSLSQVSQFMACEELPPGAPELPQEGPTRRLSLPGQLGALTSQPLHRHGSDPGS
wild-type KV11.1, sequence (Q12809 whole entry, the tested form may be a part): as the sequence (Q12809 whole entry) above

## Cc1cc(C)c2c(c1)[C@@H](N(Cc1cc(C(F)(F)F)cc(C(F)(F)F)c1)c1nnn(C)n1)CCCN2C[C@H]1CC[C@H](C(=O)O)CC1 [Evacetrapib, evacetrapib]
WT Kv11.1
  Changes in WT function (thallium flux): 0.1125 and 0.1113 and 0.1215
wild-type KV11.1
  EC50: 8.2 µM
[1]; 10 μmol/L, 24 hours
  share of the 546 variants rescued by either drug that evacetrapib improved: 45%
[1]; 16 out of 94
  share of known pathogenic variants in the pore region with improved trafficking: 17%
[1]; 248 out of 971, 10 μmol/L, 24 hours
  share of all trafficking-deficient variants in this channel segment with improved trafficking: 25%
[1]; of 971 variants with ≥90% loss of surface expression, 10 μmol/L, 24 hours
  number of trafficking-deficient variants with improved trafficking: 248
[1]; out of 94, 10 μmol/L, 24 hours
  number of known pathogenic variants in the pore region with improved trafficking: 16
